Read-outs that look alike come from different tables or passages of the source.
Biological target: CVF-Bb complex (Homo sapiens (Human), UniProt P00751)
Experiment: biochemical
Format: biochemical
Method: CVF-Bb complex, prepared from purified cobra venom factor, (3 nM) is incubated with a compound of the disclosure at various concentrations for 10 minutes at room temperature in PBS (pH 7.4) containing 10 mM MgCl2 and 0.05% (w/v) CHAPS. Human Complement C3 substrate is added to a final concentration of 1 μM. After 1 hour incubation at room temperature, the enzyme reaction is stopped by addition of a cocktail of concentrated pan-protease inhibitors. The product of the reaction, C3a, is quantified by means of an enzyme-linked-immunosorbent assay and/or denaturing gel electrophoresis (SDS-PAGE). IC50 values are calculated from percentage of inhibition of CVF-Bb activity as a function of test compound concentration.

Compound | IC50 | IC50 (read-out: IC50) | further results
COc1cc(C)c2[nH]ccc2c1CN1CC[C@H]2C[C@H]1c1ccc(C(=O)O)cc1/C=C\CCCCCO2 [Ex. 37, (1^2R,1^4R,Z)-1^1-((5-methoxy-7-methyl-1H-indol-4-yl)methyl)-10-oxa-1(2,4)-piperidina-2(1,2)-benzenacyclodecaphan-3-ene-2^4-carboxylic acid] | 263 nM |  | 
COc1cc(C)c2[nH]ccc2c1CN1CC[C@H]2C[C@H]1c1ccc(C(=O)O)cc1/C=C/CCCCCCO2 [Ex. 38, (1^2R,1^4R,E)-11-((5-methoxy-7-methyl-1H-indol-4-yl)methyl)-1^1-oxa-1(2,4)-piperidina-2(1,2)-benzenacycloundecaphan-3-ene-2^4-carboxylic acid] | 160 nM |  | 
COc1cc(C)c2[nH]ccc2c1CN1CC[C@H]2CC1c1ccc(C(=O)O)cc1CCCCCCCO2 [Ex. 39, (1^2S,1^4RS)-1^1-((5-methoxy-7-methyl-1H-indol-4-yl)methyl)-10-oxa-1(2,4)-piperidina-2(1,2)-benzenacyclodecaphane-2^4-carboxylic acid] | 251 nM |  | 
COc1cc(C)c2[nH]ccc2c1CN1CC[C@H]2C[C@H]1c1ccc(C(=O)NS(C)(=O)=O)cc1OCCCCCO2 [Ex. 40, (1^2R,1^4R)-1^1-((5-methoxy-7-methyl-1H-indol-4-yl)methyl)-N-(methylsulfonyl)-3,9-dioxa-1(2,4)-piperidina-2(1,2)-benzenacyclononaphane-2^4-carboxamide] | 309 nM |  | 
COc1cc(C)c2[nH]ccc2c1CN1CC[C@H]2C[C@H]1c1ccc(C(=O)O)cc1CCCCCCCCO2 [Ex. 41, (1^2R,1^4R)-1^1-((5-methoxy-7-methyl-1H-indol-4-yl)methyl)-11-oxa-1(2,4)-piperidina-2(1,2)-benzenacycloundecaphane-2^4-carboxylic acid] | 129 nM |  | 
COc1cc(C)c2[nH]ccc2c1CN1CC[C@@H]2C[C@@H]1c1ccc(C(=O)O)cc1OCC/C=C\CO2 [Ex. 42, (1^2R,1^4R,Z)-1^1-((5-methoxy-7-methyl-1H-indol-4-yl)methyl)-3,9-dioxa-1(2,4)-piperidina-2(1,2)-benzenacyclononaphan-6-ene-2^4-carboxylic acid] | 1060 nM |  | 
CCO[C@H]1CCN(Cc2c(OC)cc(C)c3[nH]ccc23)[C@H](c2ccc(C(=O)NS(=O)(=O)CC)cc2)C1 [Ex. 44, 4-((2S,4S)-4-ethoxy-1-((5-methoxy-7-methyl-1H-indol-4-yl)methyl)piperidin-2-yl)-N-(ethylsulfonyl)benzamide] | 138 nM |  | 
COc1cc(C)c2[nH]ccc2c1CN1CC[C@H]2C[C@H]1c1ccc(C(=O)NS(=O)(=O)C3(C)CC3)cc1OCCCCCCO2 [Ex. 46] | 311 nM |  | 
COc1cc(C)c2[nH]ccc2c1CN1CC[C@H]2C[C@H]1c1ccc(C(=O)NS(=O)(=O)C(C)C)cc1OCCCCCCO2 [Ex. 47, (1^2S,1^4S)-N-(isopropylsulfonyl)-11-((5-methoxy-7-methyl-1H-indol-4-yl)methyl)-3,10-dioxa-1(2,4)-piperidina-2(1,2)-benzenacyclodecaphane-2^4-carboxamide] | 649 nM |  | 
COc1cc(C)c2[nH]ccc2c1CN1CC[C@H]2C[C@H]1c1ccc(C(=O)O)c3ccc(cc13)OCCC/C=C/CO2 [Ex. 48, (1^2S,1^4S,E)-1^1-((5-methoxy-7-methyl-1H-indol-4-yl)methyl)-3,10-dioxa-1(2,4)-piperidina-2(1,7)-naphthalenacyclodecaphan-7-ene-2^4-carboxylic acid] |  | 83.7 nM | 
COc1cc(C)c2[nH]ccc2c1CN1CC[C@H]2C[C@H]1c1ccc(C(=O)O)c3ccc(cc13)OCCCCCCO2 [Ex. 49, (1^2S,14S)-1^1-((5-methoxy-7-methyl-1H-indol-4-yl)methyl)-3,10-dioxa-1(2,4)-piperidina-2(1,7)-naphthalenacyclodecaphane-2^4-carboxylic acid] |  | 208 nM | 
COc1cc(C)c2[nH]ccc2c1CN1CC[C@H]2C[C@H]1c1ccc(C(=O)NS(=O)(=O)C3CC3)cc1OCCCCCCO2 [Ex. 50, (12S,14S)—N-(cyclopropylsulfonyl)-11-((5-methoxy-7-methyl-1H-indol-4-yl)methyl)-3,10-dioxa-1(2,4)-piperidina-2(1,2)-benzenacyclodecaphane-24-carboxamide] |  | > 10000 nM | 
COc1cc(C)c2c(ccn2C(=O)OC(C)(C)C)c1CN1CC[C@@H]2C[C@@H]1c1ccc(C(=O)O)c3ccc(cc13)OCCC/C=C/CO2 [Ex. 51, (1^2R,1^4R,E)-1^1-((1-(tert-butoxycarbonyl)-5-methoxy-7-methyl-1H-indol-4-yl)methyl)-3,10-dioxa-1(2,4)-piperidina-2(1,7)-naphthalenacyclodecaphan-7-ene-2^4-carboxylic acid] |  | > 10000 nM | 
COc1cc(C)c2[nH]ccc2c1CN1CCC2CC1c1ccc(C(=O)O)c3ccc(cc13)OCCCCCCO2 (centres unmarked) [Ex. 52, (1^2R,1^4R)-1^1-((5-methoxy-7-methyl-1H-indol-4-yl)methyl)-3,10-dioxa-1(2,4)-piperidina-2(1,7)-naphthalenacyclodecaphane-2^4-carboxylic acid] |  | > 10000 nM | 
COc1cc(C)c2[nH]ccc2c1CN1CC[C@H]2C[C@H]1c1ccc(C(=O)NS(C)(=O)=O)c3ccc(cc13)OCCC/C=C/CO2 [Ex. 54, (1^2S,1^4S,E)-1^1-((5-methoxy-7-methyl-1H-indol-4-yl)methyl)-N-(methylsulfonyl)-3,10-dioxa-1(2,4)-piperidina-2(1,7)-naphthalenacyclodecaphan-7-ene-2^4-carboxamide] |  |  | IC50 (inhibition of CVF-Bb activity (3 nM CVF-Bb, Human Complement C3 substrate 1 μM, C3a quantified), PBS pH 7.4, read-out: IC50): 303 nM
COc1cc(C)c2[nH]ccc2c1CN1CC[C@H]2C[C@H]1c1ccc(-c3ccn[nH]3)cc1OCCCCCCO2 [Ex. 55, (1^2S,1^4S)-1^1-((5-methoxy-7-methyl-1H-indol-4-yl)methyl)-2^4-(1H-pyrazol-5-yl)-3,10-dioxa-1(2,4)-piperidina-2(1,2)-benzenacyclodecaphane] |  | 2890 nM | 
COc1cc(C)c2[nH]ccc2c1CN1CC[C@H]2C[C@H]1c1ccc(C(=O)NS(C)(=O)=O)c3ccc(cc13)OCCCCCCO2 [Ex. 56, (1^2S,1^4S)-1^1-((5-methoxy-7-methyl-1H-indol-4-yl)methyl)-N-(methylsulfonyl)-3,10-dioxa-1(2,4)-piperidina-2(1,7)-naphthalenacyclodecaphane-2^4-carboxamide] |  | 375 nM | 
COc1cc(C)c2[nH]ccc2c1CN1CC[C@H]2C[C@H]1c1ccc(C(=O)NS(=O)(=O)c3ccccc3)cc1OCCCCCCO2 [Ex. 57, (1^2S,1^4S)-1^1-((5-methoxy-7-methyl-1H-indol-4-yl)methyl)-N-(phenylsulfonyl)-3,10-dioxa-1(2,4)-piperidina-2(1,2)-benzenacyclodecaphane-2^4-carboxamide] |  | 153 nM | 
COc1cc(C)c2[nH]ccc2c1CN1CC[C@H]2C[C@H]1c1ccc(C(=O)NS(C)(=O)=O)cc1/C=C/CCCCCCO2 [Ex. 58, (1^2S,1^4S, E)-1^1-((5-methoxy-7-methyl-1H-indol-4-yl)methyl)-N-(methylsulfonyl)-11-oxa-1(2,4)-piperidina-2(1,2)-benzenacycloundecaphan-3-ene-2^4-carboxamide] |  | 1060 nM | 
CCS(=O)(=O)NC(=O)c1ccc2c(c1)OCCCCCO[C@H]1CCN(Cc3c(OC)cc(C)c4[nH]ccc34)[C@H]2C1 [Ex. 59, (1^2S,1^4S)—N-(ethylsulfonyl)-1^1-((5-methoxy-7-methyl-1H-indol-4-yl)methyl)-3,9-dioxa-1(2,4)-piperidina-2(1,2)-benzenacyclononaphane-2^4-carboxamide] |  | 244 nM | 
COc1cc(C)c2[nH]ccc2c1CN1CC[C@H]2C[C@H]1c1ccc(C(=O)NS(=O)(=O)C3CC3)cc1OCCCCCO2 [Ex. 60, (1^2S,1^4S)—N-(cyclopropylsulfonyl)-1^1-((5-methoxy-7-methyl-1H-indol-4-yl)methyl)-3,9-dioxa-1(2,4)-piperidina-2(1,2)-benzenacyclononaphane-2^4-carboxamide] |  | 231 nM | 
COc1cc(C)c2[nH]ccc2c1CN1CC[C@H]2C[C@H]1c1ccc(C(=O)NS(=O)(=O)C3CCCC3)cc1OCCCCCO2 [Ex. 61, (1^2S,1^4S)—N-(cyclopentylsulfonyl)-1^1-((5-methoxy-7-methyl-1H-indol-4-yl)methyl)-3,9-dioxa-1(2,4)-piperidina-2(1,2)-benzenacyclononaphane-2^4-carboxamide] |  | 331 nM | 
COc1cc(C)c2[nH]ccc2c1CN1CC[C@H]2C[C@H]1c1ccc(C(=O)NS(=O)(=O)C3CCCC3)cc1OCCCCCCO2 [Ex. 62, (1^2S,1^4S)—N-(cyclopentylsulfonyl)-1^1-((5-methoxy-7-methyl-1H-indol-4-yl)methyl)-3,10-dioxa-1(2,4)-piperidina-2(1,2)-benzenacyclodecaphane-2^4-carboxamide] |  | 293 nM | 
COc1cc(C)c2[nH]ccc2c1CN1CC[C@H]2C[C@H]1c1ccc(C(=O)NO)cc1OCCCCCCO2 [Ex. 63, (1^2S,1^4S)—N-hydroxy-1^1-((5-methoxy-7-methyl-1H-indol-4-yl)methyl)-3,10-dioxa-1(2,4)-piperidina-2(1,2)-benzenacyclodecaphane-2^4-carboxamide] |  | 2450 nM | 
COc1cc(C)c2[nH]ccc2c1CN1CC[C@H]2C[C@H]1c1ccc(C(=O)O)cc1/C=C/CCCCCCCO2 [Ex. 64, (1^2S,1^4S,E)-1^1-((5-methoxy-7-methyl-1H-indol-4-yl)methyl)-12-oxa-1(2,4)-piperidina-2(1,2)-benzenacyclododecaphan-3-ene-2^4-carboxylic acid] |  | 127 nM | 
COc1cc(C)c2[nH]ccc2c1CN1CC[C@H]2C[C@H]1c1ccc(C(=O)NS(C)(=O)=O)cc1CCCCCCCCO2 [Ex. 65, (1^2S,1^4S)-1^1-((5-methoxy-7-methyl-1H-indol-4-yl)methyl)-N-(methylsulfonyl)-11-oxa-1(2,4)-piperidina-2(1,2)-benzenacycloundecaphane-2^4-carboxamide] |  | 139 nM | 

— patent publication US20240182503A1, “MACROCYCLE COMPLEMENT FACTOR B INHIBITORS” (priority 2021, published 2024)
